Experimental data from patent US9669112B2, “Animal model of neuronal injury” (The J. David Gladstone Institutes, priority 2012, dated 2017).
Entries after “also recorded” stand apart in the source; their conditions may differ.

Experiments:
wild-type mice [1] = assay: Morris water maze after chronic intracerebroventricular infusion of fibrinogen; type: in vivo; settings: ICV infusion 5 mg/ml, 14-day Alzet pump; tested 24 hours after last learning trial; vs ACSF
Experimental: Fibrinogen was delivered to the central nervous system (CNS) of wild-type mice by ICY. Briefly, fibrinogen (5 mg/ml) or artificial cerebrospinal fluid (ACSF), a control, was infused into the CNS of the mice using 14-day Alzet pumps through a cannula implanted in the right lateral ventricle. The concentration of the fibrinogen solution was selected based on its physiological range in the plasma. Five days after pump implantation, the mice were trained in the Morris water maze and tested after removal of the target platform 24 hours after the last learning trial. […] To control for visual discriminative ability, the same mice located a clearly visible black platform 2 h after the last trial.

wild-type mice [2] = assay: Contextual fear conditioning test after stereotactic injection in the dentate gyrus; type: in vivo; settings: single injection 5 μg in dentate gyrus; day 7 post-injection; vs ACSF
Experimental: To assess the effect of an increase in the local concentration of fibrinogen in a specific region of interest in the brain, mice received a single stereotactic injection of either 5 μg fibrinogen (1 μl of 5 mg/ml fibrinogen) or 1 μl control (ACSF) in the dentate gyrus. The effects on memory retrieval were assessed in the contextual fear conditioning test (Riley C et al., (2012) Expert review of neurotherapeutics 12(3):323-333.). Mice were placed in a novel environment and given a brief foot shock (training day; day 6 post injection). Memory was assessed by placing the mice in the same environment again one day after the training day (testing day, day 7 post-injection) and freezing (anxiety) behavior was recorded. Percentage of freezing is a direct measure of memory retrieval.

[3] = system: neurons in the dentate gyrus; assay: NeuN and IBA-1 antibody staining of hippocampus after injection in the dentate gyrus; type: in vivo, mice; settings: 5 μg in dentate gyrus, day 7 post injection
dendritic spines = assay: Golgi staining of dendritic spines after stereotactic injection into the cortex; type: in vivo; settings: 3 days later, compared to ACSF controls
From the text: Fibrinogen injection in the cortex reduces dendritic spine density. Dendritic spines are the major site of excitatory synaptic inputs in the brain (Nimchinsky E A, et al., Annu Rev Physiol. 64:313-353). Novel spine formation and pre-existing spine elimination reflect the structural consequences of dynamic changes in neuronal activity at the cellular level (Grutzendler J & Gan W B (2006) NeuroRx 3(4):489-496; Trachtenberg J T et al., (2002) Nature 420(6917):788-794; Grutzendler J et al. (2002) Nature 420(6917):812-816.). Thus, dynamic changes in spine numbers and morphology are considered the cellular mechanisms underlying memory and learning (Holtmaat A et al. (2006) Nature 441 (7096):979-983). To assess the effect of a local concentration of fibrinogen on spine morphology, we injected fibrinogen by stereotactic injection into the cortex, and the brains were examined 3 days later by Golgi staining. Fibrinogen reduced the density of dendritic spines by 33%, compared to ACSF controls (FIG. 4).

corpus callosum = assay: Demyelination and microglial activation after stereotactic injection into the corpus callosum; type: in vivo, mice
From the text: Fibrinogen was stereotactically injected at physiological concentrations into the corpus callosum.
The experiment described in Example 4 was repeated using different mouse strains to investigate the possibility that the neuronal damage induced by fibrinogen was limited to mice with particular genetic backgrounds. […] This is particularly significant as in the traditional model for multiple sclerosis, experimental allergic encephalomyelitis (EAE), different strains of mice show varying degrees of susceptibility to EAE. EAE is a T cell-mediated autoimmune disease that can be induced in experimental animals by immunization with myelin antigens. The susceptibility to myelin antigens ranges from highly susceptible SJL/J mice to resistant B10.S mice.

spinal cord = assay: Demyelination and microglia activation after stereotactic injection into the spinal cord; type: in vivo, wild-type mice; settings: single injection at physiological concentrations; after 7 days
From the text: Either ACSF or fibrinogen was stereotactically injected at physiological concentrations into the spinal cord of wild-type mice (each Group n=3-4). […] The % area for IBA-1 staining indicates a percentage of the mean area of CD3 or IBA-1 immunoreactivity in the predefined area on spinal cord sections.

microglia [4] = assay: Acute microglial responses in vivo after injection into the cortex with a glass microelectrode; set-up: species or system Cx3cr1GFPI+ mice
Experimental: To directly address whether fibrinogen alone was sufficient to trigger acute microglial responses in the CNS, fibrinogen was injected into the cortex of Cx3cr1GFPI+ mice using a glass microelectrode. Control electrodes were also used containing ACSF or albumin (5 mg/ml). Injection of […] of a 3-6 mg/ml fibrinogen solution, which approximates the physiological concentration of fibrinogen in plasma, caused rapid extension of microglial processes toward the tip of the electrode within […] of the injection. The size of the fibrin deposit remains unaltered, and the microglial response to fibrin persists for at least 6 hours.
The levels of microglia were quantified in vivo usingantibodies against IBA-1 (Ahmed Z, supra).

microglia [5] = assay: Microglial activation 3 days after stereotactic injections of fibrinogen or plasma; type: in vivo, mice; settings: 3 days after stereotactic injection; fibrinogen 6-10 mg/ml
Experimental: FIG. 8 is a bar graph illustrating the quantification of microglial immunoreactivity from mouse brain sections 3 days after stereotactic injections of fibrinogen, ACSF or albumin protein control, or plasma isolated from wt, Fib-l-, Fib_390-396A mice (n=6 mice per condition). The bar graph represents the mean (*P<0.05, **P<0.01, one-way ANOVA).
Higher concentrations of fibrinogen were introduced (6-10 mg/ml), as well as ACSF, albumin, or plasma isolated from wt, Fib-l-, Fib_390-396A mice (n=6 mice per condition).

Substance: fibrinogen
- memory recall (crossings of the target platform, time spent in the target quadrant) (wild-type mice [1]): impaired memory recall
- percentage of freezing (memory retrieval) (wild-type mice [2]): significant decrease; also recorded: impaired memory retrieval
- microglial activation (IBA-1 antibody staining) ([3]; hippocampal tissue): increased microglial activation; also recorded: increase in IBA-1 staining
- NeuN immunoreactivity (neuronal loss) ([3]; hippocampus): dramatic decrease; also recorded: reduction in NeuN staining
- reduction of density of dendritic spines (dendritic spines): 33%
- demyelination in the corpus callosum (corpus callosum; C57BL/6 mice (B6)): significant demyelination
- microglial activation in the corpus callosum (corpus callosum; C57BL/6 mice (B6)): microglial activation
- demyelination in the corpus callosum (corpus callosum; SJL/J mice (SJL)): significant demyelination
- microglial activation in the corpus callosum (corpus callosum; SJL/J mice (SJL)): microglial activation
- time to induction of microglial activation (corpus callosum; corpus callosum injection): ≤ 1 days
- demyelination in the corpus callosum (corpus callosum; single injection at physiological concentrations, after 7 days): induced demyelination
- demyelination in the spinal cord (spinal cord): spontaneously induced demyelination
- microglia activation in the spinal cord (IBA-1 staining) (spinal cord): microglia activation
- microglial responses (quantification) (microglia [4]; 3-6 mg/ml, compared to ACSF or albumin): robust and statistically significant increase
- persistence of microglial response to fibrin (microglia [4]; 5-10 μl of 3-6 mg/ml solution into cortex): at least 6 hours
- microglial activation 3 days after injection (microglia [5]): formed a deposit that is surrounded by microglial processes
